The results in this text go back to ChEMBL document CHEMBL1158735, “Manoyl oxide diterpenoids from Grindelia scorzonerifolia” (2005).

SMILES strings stand for the structures. Values after ≈ are worked out from the molar mass of the structure shown.

Type in all cases: functional
The test system of assay [1] is Staphylococcus aureus. The assay can be described thus: Antibacterial activity against methicillin-resistant Staphylococcus aureus F7 after 24 hrs by broth microdilution method.
In assay [2] the test system is Spodoptera frugiperda. As to the kind of experiment: Insecticidal activity against third instar larvae of Spodoptera frugiperda assessed as malformation and mortality at 100 ppm administered through larval diet.
Assay [3] relates to Staphylococcus aureus. The assay can be described thus: Antibacterial activity against Staphylococcus aureus ATCC 6538P after 24 hrs by broth microdilution method.
For assay [4], the system named is Spodoptera frugiperda. The assay can be described thus: Effect on feeding preference of third instar larvae of Spodoptera frugiperda assessed as food consumption at 100 ppm administered through larval diet by feeding election test relative to control.

One may read the MIC as the smallest concentration in the dilution series that meets the test's criterion for growth inhibition. Low readings indicate greater potency, high ones weaker potency. Regarding `C=C[C@@]1(C)CC[C@@H]2[C@@]3(C)CCC[C@@](C)(CO[C@@H]4OC[C@H](O)[C@H](O)[C@H]4O)[C@@H]3CC[C@@]2(C)O1`, the MIC worked out at 1250 µg/mL (≈ 2.85 mM) in assay [1] and 2000 µg/mL (≈ 4.56 mM) in assay [3]. Moreover, the Activity in assay [2] turned out to be 80%; in assay [4] it was 1.
